Biological target: WDR5 (Homo sapiens, UniProt P61964)
Assay: Screening of putative WDR5 degraders by Western blot in MV4;11 and/or MIAPACA2 cells
Assay type: cell-based
Design: After WDR5 degrader treatment, cells were collected and lysed; endogenous in cells; host or cells: MV4;11 and/or MIAPACA2
Conditions: summary of screening, FIGS. 6-10
Experimental: MV4;11 cells were treated with DMSO or indicated compounds at 0.1 μM and 0.5 μM for 18 hours. […]. MIAPACA2 cells were treated with DMSO or indicated compounds at 0.5 μM and 1.0 μM for 18 hours.
MIAPACA2 cells were treated with DMSO or indicated compounds at 0.1 μM and 0.5 μM for 18 hours.
MIAPACA2 cells were treated with DMSO or indicated compounds at 0.5 μM and 1.0 μM or at 1.0 μM and 10 μM for 18 hours.
MV4;11 cells were treated with DMSO or indicated compounds at 0.1 μM and 1.0 μM for 18 hours.
WDR5 degraders were dissolved in DMSO and DMSO with no degraders was used as the control. 1×10^6 MV4;11 cells or 1×10^5 MIAPACA2 or 2×10^5 Hela cells were seeded in 2 mL medium for each well in […].
For prescreening of all the compounds, each test compound was added to the medium at indicated concentrations. After 18 h treatment, cells were collected.
After WDR5 degrader treatment, cells were collected and lysed. Total cell lysates were used for western blot. The following primary antibodies were used: WDR5 (Santa Cruz), vinculin (Cell Signaling Technology), tubulin (Cell Signaling Technology), GAPDH (Santa Cruz). Blots were imaged using fluorescence-labeled secondary antibodies on ChemiDoc™ Imaging Systems.

| Structure (SMILES) | effective degradation of WDR5 in MV4;11 and/or MIAPACA2 cells |
| --- | --- |
| Cc1ncsc1-c1ccc(CNC(=O)[C@@H]2C[C@@H](O)CN2C(=O)[C@@H](NC(=O)CCOCCC(=O)NCCN2CCN(Cc3ccc(F)c(-c4ccc(N5C[C@@H](C)N(C)[C@@H](C)C5)c(NC(=O)c5c[nH]c(=O)cc5C(F)(F)F)c4)c3)CC2)C(C)(C)C)cc1 [XF078-2, N-(2′-fluoro-5′-((4-(2-(3-(3-(((S)-1-((2S,4R)-4-hydroxy-2-((4-(4-methylthiazol-5-yl)benzyl)carbamoyl)pyrrolidin-1-yl)-3,3-dimethyl-1-oxobutan-2-yl)amino)-3-oxopropoxy)propanamido)ethyl)piperazin-1-yl)methyl)-4-((3S,5R)-3,4,5-trimethylpiperazin-1-yl)-[1,1′-biphenyl]-3-yl)-6-oxo-4-(trifluoromethyl)-1,6-dihydropyridine-3-carboxamide] | able to effectively degrade WDR5 |
| Cc1ncsc1-c1ccc(CNC(=O)[C@@H]2C[C@@H](O)CN2C(=O)[C@@H](NC(=O)CCOCCOCCOCCC(=O)NCCN2CCN(Cc3ccc(F)c(-c4ccc(N5C[C@@H](C)N(C)[C@@H](C)C5)c(NC(=O)c5c[nH]c(=O)cc5C(F)(F)F)c4)c3)CC2)C(C)(C)C)cc1 [XF078-6, N-(2′-fluoro-5′-((4-((S)-18-((2S,4R)-4-hydroxy-2-((4-(4-methylthiazol-5-yl)benzyl)carbamoyl)pyrrolidine-1-carbonyl)-19,19-dimethyl-4,16-dioxo-7,10,13-trioxa-3,17-diazaicosyl)piperazin-1-yl)methyl)-4-((3S,5R)-3,4,5-trimethylpiperazin-1-yl)-[1,1′-biphenyl]-3-yl)-6-oxo-4-(trifluoromethyl)-1,6-dihydropyridine-3-carboxamide] | able to effectively degrade WDR5 |
| Cc1ncsc1-c1ccc(CNC(=O)[C@@H]2C[C@@H](O)CN2C(=O)[C@@H](NC(=O)COCCOCCOCCOCCOCC(=O)NCCN2CCN(Cc3ccc(F)c(-c4ccc(N5C[C@@H](C)N(C)[C@@H](C)C5)c(NC(=O)c5c[nH]c(=O)cc5C(F)(F)F)c4)c3)CC2)C(C)(C)C)cc1 [XF078-8, N^1-(2-(4-((6-fluoro-3′-(6-oxo-4-(trifluoromethyl)-1,6-dihydropyridine-3-carboxamido)-4′-((3S,5R)-3,4,5-trimethylpiperazin-1-yl)-[1,1′-biphenyl]-3-yl)methyl)piperazin-1-yl)ethyl)-N^17-((S)-1-((2S,4R)-4-hydroxy-2-((4-(4-methylthiazol-5-yl)benzyl)carbamoyl)pyrrolidin-1-yl)-3,3-dimethyl-1-oxobutan-2-yl)-3,6,9,12,15-pentaoxaheptadecanediamide] | able to effectively degrade WDR5 |
| C[C@@H]1CN(c2ccc(-c3cc(CN4CCN(CCNC(=O)CCCNc5cccc6c5C(=O)N(C5CCC(=O)NC5=O)C6=O)CC4)ccc3F)cc2NC(=O)c2c[nH]c(=O)cc2C(F)(F)F)C[C@H](C)N1C (stereo partly drawn) [XF078-20, N-(5′-((4-(2-(4-((2-(2,6-dioxopiperidin-3-yl)-1,3-dioxoisoindolin-4-yl)amino)butanamido)ethyl)piperazin-1-yl)methyl)-2′-fluoro-4-((3S,5R)-3,4,5-trimethylpiperazin-1-yl)-[1,1′-biphenyl]-3-yl)-6-oxo-4-(trifluoromethyl)-1,6-dihydropyridine-3-carboxamide] | able to effectively degrade WDR5 |
| C[C@@H]1CN(c2ccc(-c3cc(CN4CCN(CCNC(=O)CCCCNc5cccc6c5C(=O)N(C5CCC(=O)NC5=O)C6=O)CC4)ccc3F)cc2NC(=O)c2c[nH]c(=O)cc2C(F)(F)F)C[C@H](C)N1C (stereo partly drawn) [XF078-21, N-(5′-((4-(2-(5-((2-(2,6-dioxopiperidin-3-yl)-1,3-dioxoisoindolin-4-yl)amino)pentanamido)ethyl)piperazin-1-yl)methyl)-2′-fluoro-4-((3S,5R)-3,4,5-trimethylpiperazin-1-yl)-[1,1′-biphenyl]-3-yl)-6-oxo-4-(trifluoromethyl)-1,6-dihydropyridine-3-carboxamide] | able to effectively degrade WDR5 |

The next lines start with the values.

| effective degradation of WDR5 in MV4;11 and/or MIAPACA2 cells | Structure (SMILES) |
| --- | --- |
| able to effectively degrade WDR5 | Cc1ncsc1-c1ccc(CNC(=O)[C@@H]2C[C@@H](O)CN2C(=O)[C@@H](NC(=O)CCCCC(=O)NCCN2CCN(Cc3ccc(F)c(-c4ccc(N5C[C@@H](C)N(C)[C@@H](C)C5)c(NC(=O)c5c[nH]c(=O)cc5C(F)(F)F)c4)c3)CC2)C(C)(C)C)cc1 [XF078-12, N^1-(2-(4-((6-fluoro-3′-(6-oxo-4-(trifluoromethyl)-1,6-dihydropyridine-3-carboxamido)-4′-((3S,5R)-3,4,5-trimethylpiperazin-1-yl)-[1,1′-biphenyl]-3-yl)methyl)piperazin-1-yl)ethyl)-N^6-((S)-1-((2S,4R)-4-hydroxy-2-((4-(4-methylthiazol-5-yl)benzyl)carbamoyl)pyrrolidin-1-yl)-3,3-dimethyl-1-oxobutan-2-yl)adipamide] |
| able to effectively degrade WDR5 | Cc1ncsc1-c1ccc(CNC(=O)[C@@H]2C[C@@H](O)CN2C(=O)[C@@H](NC(=O)CCCCCC(=O)NCCN2CCN(Cc3ccc(F)c(-c4ccc(N5C[C@@H](C)N(C)[C@@H](C)C5)c(NC(=O)c5c[nH]c(=O)cc5C(F)(F)F)c4)c3)CC2)C(C)(C)C)cc1 [XF078-13, N^1-(2-(4-((6-fluoro-3′-(6-oxo-4-(trifluoromethyl)-1,6-dihydropyridine-3-carboxamido)-4′-((3S,5R)-3,4,5-trimethylpiperazin-1-yl)-[1,1′-biphenyl]-3-yl)methyl)piperazin-1-yl)ethyl)-N^7-((S)-1-((2S,4R)-4-hydroxy-2-((4-(4-methylthiazol-5-yl)benzyl)carbamoyl)pyrrolidin-1-yl)-3,3-dimethyl-1-oxobutan-2-yl)heptanediamide] |
| able to effectively degrade WDR5 | Cc1ncsc1-c1ccc(CNC(=O)[C@@H]2C[C@@H](O)CN2C(=O)[C@@H](NC(=O)CCCCCCC(=O)NCCN2CCN(Cc3ccc(F)c(-c4ccc(N5C[C@@H](C)N(C)[C@@H](C)C5)c(NC(=O)c5c[nH]c(=O)cc5C(F)(F)F)c4)c3)CC2)C(C)(C)C)cc1 [XF078-14, N^1-(2-(4-((6-fluoro-3′-(6-oxo-4-(trifluoromethyl)-1,6-dihydropyridine-3-carboxamido)-4′-((3S,5R)-3,4,5-trimethylpiperazin-1-yl)-[1,1′-biphenyl]-3-yl)methyl)piperazin-1-yl)ethyl)-N^8-((S)-1-((2S,4R)-4-hydroxy-2-((4-(4-methylthiazol-5-yl)benzyl)carbamoyl)pyrrolidin-1-yl)-3,3-dimethyl-1-oxobutan-2-yl)octanediamide] |
| able to effectively degrade WDR5 | Cc1ncsc1-c1ccc(CNC(=O)[C@@H]2C[C@@H](O)CN2C(=O)[C@@H](NC(=O)CCCCCCCC(=O)NCCN2CCN(Cc3ccc(F)c(-c4ccc(N5C[C@@H](C)N(C)[C@@H](C)C5)c(NC(=O)c5c[nH]c(=O)cc5C(F)(F)F)c4)c3)CC2)C(C)(C)C)cc1 [XF078-15, N^1-(2-(4-((6-fluoro-3′-(6-oxo-4-(trifluoromethyl)-1,6-dihydropyridine-3-carboxamido)-4′-((3S,5R)-3,4,5-trimethylpiperazin-1-yl)-[1,1′-biphenyl]-3-yl)methyl)piperazin-1-yl)ethyl)-N^9-((S)-1-((2S,4R)-4-hydroxy-2-((4-(4-methylthiazol-5-yl)benzyl)carbamoyl)pyrrolidin-1-yl)-3,3-dimethyl-1-oxobutan-2-yl)nonanediamide] |

Source: patent US12110295B2, “WD40 repeat domain protein 5 (WDR5) degradation/disruption compounds and methods of use” (Icahn School of Medicine at Mount Sinai, priority 2018, dated 2024)
